# Legend:
# [1] = one study; cited from earlier work
# [2] = biological target: cannabinoid receptor type-2 (CB2) (Homo sapiens, UniProt P34972); conditions: cited from earlier work
# [3] = mice; cited from earlier work
# [4] = mammals; cited from earlier work
# [5] = Tape-strip test of THC absorbance into pig skin after topical application of salve; format: in vitro ADME
# Description: A composition as described herein, e.g., in the form of a salve containing 1000 mg THC and carrier components was tested for its absorbance into skin following topical application to the skin of an animal (pig).
# The absorbance testing procedure was performed as follows: the salve/lotion composition was applied topically to an area of the skin of a pig. Approximately 500 mg of the salve/lotion composition was applied to the area of skin using a gloved finger. The composition was applied to the skin by rubbing in a circular motion. The applied composition (salve composition) remained on the skin for different time periods, i.e., 10 minutes, 30 minutes, or 60 minutes, to allow the components of the composition, e.g., THC, to absorb into the skin. At the end of each time period, the area of the skin on which the composition had been applied was contacted with adhesive strips to test for the presence of residual cannabinoids, using an adhesive test tape (strip) method, e.g., as known in the art. (See, e.g., A. L. M. Ruela et al., 2016, BJPS, Vol. 52, No. 3:527-544; S. Zsiko et al., 2019, Sci. Pharm. (Review), Vol. 87, No. 19; doi:10.3390/scipharm87030019, 21 pages). In general, the tape-stripping technique is employed for analysis of penetration of an active or component (e.g., THC) into the stratum corneum. The procedure may be applied using an animal skin model, such as pig skin, e.g., a portion of skin removed from the animal. The procedure involved the sequence removal of cell layers of the stratum corneum by application of pieces (strips) of adhesive tape. The residues of the applied composition or formulation were removed from the skin surface, and the adhesive strip was applied by using pressure to ensure its adhesion to the skin. […]
# FIG. 1 illustrates the results of the time course experiment following absorption testing 10 minutes after the composition comprising 1000 mg THC+carrier ingredients was applied to the animal's skin. Absorption or permeation of THC (ppm) per layer of skin (20 skin layers deep) was assessed using adhesive test strips. […]
# Chain of cannabinoid receptor type-2 (CB2) (P34972 whole entry, species assumed): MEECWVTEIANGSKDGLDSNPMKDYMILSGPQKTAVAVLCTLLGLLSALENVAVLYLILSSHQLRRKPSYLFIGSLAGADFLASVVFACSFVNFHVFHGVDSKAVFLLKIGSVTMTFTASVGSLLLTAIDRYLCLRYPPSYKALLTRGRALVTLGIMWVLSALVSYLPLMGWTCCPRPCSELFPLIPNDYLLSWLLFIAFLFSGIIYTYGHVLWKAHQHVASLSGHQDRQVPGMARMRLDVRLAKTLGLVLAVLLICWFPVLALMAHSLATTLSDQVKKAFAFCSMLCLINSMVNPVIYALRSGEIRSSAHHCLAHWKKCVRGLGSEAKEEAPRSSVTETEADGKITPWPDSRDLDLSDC
smiles,measurement,setting,value
"C=C(C)[C@@H]1CCC(C)=C[C@H]1c1c(O)cc(CCCCC)cc1O [CBD, (−)-trans-cannabidiol]",relieving pain and reducing inflammation compared with aspirin,[1],more effective than aspirin
"C=C1CCC=C(C)CCC2C1CC2(C)C (stereo not shown) [Caryophyllene, 4,11,11-trimethyl-8-methylene-bicyclo[7.2.0]undec-4-ene]",activity at CB2,[2],selective agonist
same,anti-inflammatory effects,[3],"significant cannabi-mimetic, anti-inflammatory effects"
C/C1=C\CC/C(C)=C/CC(C)(C)/C=C/C1 [Humulene],anti-inflammatory activity,[4],effects similar to those of dexamethasone
"CCCCCc1cc(O)c2c(c1)OC(C)(C)[C@@H]1CCC(C)=C[C@@H]21 [THC, Δ^9-tetrahydrocannabinol]",presence of cannabinoids in the skin layers beneath the stratum corneum,"[5]; 5 ppm limit of quantification (LOQ), pig skin tape strips",inability to detect the presence of cannabinoids
same,location of THC component in skin,"[5]; 60 minutes after topical application, salve containing 1000 mg THC + carrier, pig skin",the majority of the THC component had entered the stratum corneum
same,time after topical application at which absorption or penetration of THC into the skin was highest,"[5]; salve containing 1000 mg THC + carrier, approx. 500 mg applied to pig skin, 20 tape strips, HPLC",10 to 30 min

# Source: patent US20200345686A1, “COMPOSITIONS AND METHODS FOR TREATING SKIN AND N[…] DISORDERS” (VCP IP HOLDINGS, LLC, LIMITED LIABILITY COMPANY DELAWARE, priority 2019, published 2020)
